Measured values from patent US8852654B2 (priority 2011, dated 2014).

Assays:
[1] = cited from earlier work
[2] = Double blind randomized clinical assay in women with low urinary tract infection treated with nitrofurantoin; type: in vivo, human
Source text: Patients were ambulatory in the Urology Polyclinical of the Clinical Hospital of the University of Chile (HCUCH). Those that fulfilled the inclusion and exclusion criteria signed an informed consent to participate in the study. Patients were distributed randomly in the two following groups:
During the treatment, under medical and nursery checkup registers of adverse reactions, hemogram, biochemical profile, urocultive and determination of plasma antioxidant capacity were made.

## O=C1CN(/N=C/c2ccc([N+](=O)[O-])o2)C(=O)N1 [nitrofurantoin, N-(5-nitro-2-furfuriliden)-1-aminohidantoin]
[1]; after oral administration
  Absorption: almost completely absorbed
[1]; oral
  Maximum plasma concentrations: about 1 mg/L
[1]; oral, prolonged in renal insufficiency
  Plasma half-life: 20 to 30 min
[2]; human, in vivo
  Biochemical profile values compared with reference values: not statistically different from reference values
  Hemogram values compared with reference values: not statistically different from reference values
[2]; received only nitrofurantoin, 100 mg every 12 hours, 15 patients per group
  Patients passed away because of the gastrointestinal adverse reactions: 2 patients
